Measured values from patent publication US20080020077A1, “Association Of Vegetal Extracts Based On Gooseberries, Black Orchids And Black Tulips And Topical Composition Comprising The Association Of Said Vegetal Extracts” (priority 2004, published 2008).

Tested on: collagen
Assay: Collagen content of human fibroblasts (hydroxyproline by reverse-phase HPLC)
Type: cell-based
Settings: positive reference, versus control
Description: For this study, the fibroblasts were cultured in the same way as in paragraph 1.4.1. After the incubation period, the fibroblasts were recovered by centrifugation. The pellets were digested with […] (1 mg/cell pellet) in […] acetic acid for 24 hours at 4° C. After centrifugation at 10 000 g, the collagens were precipitated with 1 M sodium chloride (NaCl), and the precipitate was resuspended and then dialyzed. The primary amino acids were derivatized with o-phthaldehyde (OPA) acid, thus eliminating their interference. Hydroxyproline and proline were then derivatized with NBD-Cl by coupling the amino groups to NBD-CL. The NBD-Hyp was separated and identified by reverse-phase HPLC. […] The mobile phase is pre-filtered and then degassed before use. • The solutions are prepared in the following way: […] The standard curve is prepared from a solution of hydroxyproline at 50 mg/l. Successive dilutions make it possible to obtain solutions ranging from 0.5 to 40 mg/l. The derivatization and the establishment of the standard curve are carried out using 10 μl of a standard solution at various concentrations, mixed with 10 μl of the buffer. After the addition of 5 μl of OPA and agitation, the tubes are kept at ambient temperature for 5 min and then 10 μl of the NBD-Cl solution are added. […] The tubes are then removed and the orange coloration makes it possible to verify the derivatization. […]

O=C1O[C@H]([C@@H](O)CO)C(O)=C1O [Vit C, vitamin C]
% incorporation: +61%
